Assays:
Type in all cases: in vitro ADME, human
[1] = in vitro; conditions: human
Experimental: (§1) A precise amount of FRLE reserve solution is diluted to concentrations of 50, 100, and 150 μg/mL, representing the low, medium, and high concentrations of FRLE. Additionally, solutions are prepared containing 0.100 μmoL/mL Verapamil (Ver), 0.099 μmoL/mL Cyclosporine A (CsA), and 0.025 μmoL/mL EGTA at low, medium, and high concentrations for bidirectional transport.
(§2) Caco-2 cells are seeded at a density of 2.5 × 10^5 cells/mL, with 0.5 mL inoculated into each well of a Transwell® 12-well plate. After continuous culturing for 18 days, the cell model is established. Bidirectional transport experiments include AP→BL ([…], absorption transport) and BL→AP ([…], secretion transport).
(§3) Taking absorption transport as an example: 0.5 mL of drug-containing Hank’s Balanced Salt Solution (HBSS) solution is added to the apical (AP) side (supply side), while 1.5 mL of blank solution is added to the basolateral (BL) side (receiving side). At time points 15, 30, 60, 90, 120, 150, and 180 min, 200 µL is drawn from the BL side and simultaneously supplemented with 200 µL of HBSS buffer. The samples are then evaporated in a water bath, re-dissolved in methanol, and centrifuged at 12,000 rpm for 10 min. The supernatant is taken and assayed under the conditions described in “Establishment of the determination method for euscaphic acid and tiliroside”. The effects of different times, concentrations, inhibitors, chelating agents, and pH values on the absorption characteristics of euscaphic acid and tiliroside in FRLE are investigated. The secretion transport procedure is identical to the absorption transport ([Artursson & Karlsson, 1991]).
(§4) The side with the added blank solution is considered the receiving side, and the amount of drug in the receiving side is regarded as its absorption amount (Qr). In the A→B transport test, the amount of drug absorbed by the B-side chamber at any time point is denoted as (QrBi). In the B→A transport test, the amount of drug absorbed by the A-side chamber at any time point is (QrAi). The specific calculations are provided in the following formulas:
(§5) A-B transport: QrBi = 0.2 × (Cr1 + Cr2 + Λ + Cr(i-1)) + 1.5 × Cri
(§6) B-A transport: Qrdi = 0.2 × (Cr1 + Cr2 + Λ + Cr(i-1)) + 0.5 × Cdi
(§7) In the formula, 1.5 represents the volume of the test solution added to the B-side chamber (mL), 0.5 represents the volume of the test solution added to the A-side chamber (mL), and 0.2 is the volume of each sample taken (mL). Cri is the actual concentration in the receiving chamber at the i-th time point (μg/mL). The apparent permeability coefficient Papp (cm/s) is calculated using the following formula ([Lu et al., 2020]):
(§8) Papp=dQ/dt×1/A×C0 dQ/dt represents the amount of drug transported per unit of time (μg/s); A is the surface area of the 12-well Transwell® membrane (1.12 cm^2), and C0 is the initial concentration of the drug in the donor side ([…]) ([Qu et al., 2021]).
(§9) Exhaust ratio (RB-A/A-B)) is calculated using the following formula: RB−A/A−B=Papp(B−A)/Papp(A−B)

[2] = tested on: Caco-2 cells; assay: in vitro
Experimental: as §1, §2, §3, §4, §5, §6, §7, §8, §9

[3] = tested on: P-gp; assay: in vitro; conditions: human, Caco-2, RB→A/A→B
Experimental: as §1, §2, §3, §4, §5, §6, §7, §8, §9

Papp at 180 min ([1]; Caco-2): 0.754 to 26.9 ×10⁻⁶ cm/s
efflux ratio at 180 min, 50 μg/mL ([1]; Caco-2, RB→A/A→B): 0.88 ± 0.01
efflux ratio at 180 min, 100 μg/mL ([1]; Caco-2, RB→A/A→B): 0.86 ± 0.01
efflux ratio at 180 min, 150 μg/mL ([1]; Caco-2, RB→A/A→B): 1.38 ± 0.21
efflux ratio at 180 min ([1]; Caco-2, efflux ratio (RB→A/A→B)): < 1.5
efflux ratio at 180 min, 50 μg/mL ([1]; Caco-2, pH 5, RB→A/A→B): 1.16 ± 0.08
efflux ratio at 180 min, 150 μg/mL ([1]; Caco-2, pH 5, RB→A/A→B): 0.97 ± 0.06
efflux ratio at 180 min, 50 μg/mL ([1]; Caco-2, pH 6, RB→A/A→B): 0.95 ± 0.05
efflux ratio at 180 min, 100 μg/mL ([1]; Caco-2, pH 6, RB→A/A→B): 1.19 ± 0.02
efflux ratio at 180 min, 150 μg/mL ([1]; Caco-2, pH 6, RB→A/A→B): 1.03 ± 0.09
efflux ratio at 180 min ([1]; Caco-2, pH 6, RB→A/A→B value): ~1
efflux ratio at 180 min, 50 μg/mL ([1]; Caco-2, pH 8, RB→A/A→B): 1.12 ± 0.03
efflux ratio at 180 min, 150 μg/mL ([1]; Caco-2, pH 8, RB→A/A→B): 0.91 ± 0.05
efflux ratio at 180 min, 50 μg/mL ([1]; Caco-2, pH 9, RB→A/A→B): 1.08 ± 0.03
P-gp substrate status ([2]; Caco-2): substrates of P-gp
absorption category from Papp ([2]; Caco-2): good absorption
transport mechanism ([2]; Caco-2): passive diffusion
transport of euscaphic acid over time (Fig. 5M-O) ([2]; human, Caco-2, 15 min, 50 μg/mL, pH 9): 0.08
absorption amount (Qr) ([2]; human, Caco-2, 120 min, 50 μg/mL): 4.56
transport of euscaphic acid over time (Fig. 5M-O) ([2]; human, Caco-2, 150 min, 50 µg/mL, pH 9): 0.45
Papp ([2]; human, Caco-2, 180 min): greater than 10^−6
RB→A/A→B ratios, range over all conditions ([2]; human, Caco-2, 180 min): 0.72-1.58
RB→A/A→B ([2]; human, Caco-2, 180 min, 100 μg/mL, pH 5): 1.16 ± 0.03
RB→A/A→B ([2]; human, Caco-2, 180 min, 100 μg/mL, pH 8): 0.95 ± 0.02
RB→A/A→B ([2]; human, Caco-2, 180 min, 100 μg/mL, pH 9): 1.16 ± 0.04
RB→A/A→B ([2]; human, Caco-2, 180 min, 150 μg/mL, pH 9): 1.14 ± 0.01
efflux ratio at 180 min, 50 μg/mL [3]: 0.72 ± 0.01
efflux ratio at 180 min, 100 μg/mL [3]: 0.78 ± 0.06
efflux ratio at 180 min, 150 μg/mL [3]: 1.58 ± 0.01
SMILES: C[C@@H]1CC[C@]2(C(=O)O)CC[C@]3(C)C(=CC[C@@H]4[C@@]5(C)C[C@@H](O)[C@@H](O)C(C)(C)[C@@H]5CC[C@]43C)[C@@H]2[C@]1(C)O [Euscaphic acid]
